Converted amounts (≈) assume the structure as drawn. “And” between values parts separate entries of the source, which are not always exact repeats. Equal entries are not always repeated. Where two headings read alike, the source gives them in different places.
How the values were obtained:
in vitro [1] = conditions: human, hela-ace2 cells, 50.0
[2] = Permeability Papp (AB) MDR1/MDCKII; conditions: for perc_recovery_a_to_b_mean / perc_recovery_a_to_b_inhibitor_mean: recovery A to B; for perc_recovery_a_to_b_inhibitor_mean / perc_recovery_b_to_a_inhibitor_mean: MDR1-MDCKII; for papp_a_to_b_mean: A to B
[3] = system: SARS-CoV-2, isolate USA-WA1/2020; experiment: microbe, parasite or virus in culture; type: cell-based; conditions: HeLa-ACE2 SARS-CoV-2 antiviral effect without P-gp inhibitor; for perc_max_measured: maximum measured response of dose series; for perc_min_measured: minimum measured response of dose series; for EC50: read-out: ec50; for EC90: read-out: ec90
LogD = conditions: pH 7.4; In vitro LogD
in vitro [4] = experiment: in vitro; parameters: Cytotoxicity in iPSC-derived pneumocytes, CC50; conditions: human, ipsc-derived pneumocytes, read-out: 50.0
From the text: Finally, we consider the hypothesis that interferon response triggers ADP-ribosylation, thus profiling the compounds in enhanced and physiologically relevant interferon environments could reveal detectable antiviral effects. […] Furthermore, HeLa-ACE2 cells, and all cancerous cell lines, display defective innate immune response ([1]). As such, we also assess our compound in a primary-like iPSC-derived pneumocyte system (Figure 7C), showing likewise a lack of antiviral activity in this physiologically relevant innate immunity system.

[5] = In vitro kinetic solubility; conditions: In vitro kinetic solubility, ph 7.4
SARS-CoV-2 = experiment: Antiviral effect in iPSC-derived pneumocyte system; type: cell-based; conditions: iPSC pneumocytes SARS-CoV-2 antiviral effect; for perc_max_measured: maximum measured response of dose series; for perc_min_measured: minimum measured response of dose series
[6] = Hepatic microsomal stability, HLM; type: in vitro ADME, human; conditions: In vitro human liver microsomal stability; for perc_remaining_no_cofactor: no cofactor
iPSC pneumocytes = iPSC pneumocytes cytotoxicity; type: cell-based; conditions: for perc_max_measured: highest measured response of the dose series; for perc_min_measured: lowest measured response of the dose series
From the text: Supplement media-1.zip/Cytotoxicity.csv, table | column: cc10; cc50; perc_min_measured; perc_max_measured

[7] = Hepatic microsomal stability, MLM; type: in vitro ADME
HeLa-ACE2 cells = conditions: protocol HeLa-ACE2 cytotoxicity; for perc_max_measured: highest measured response of the dose series; for perc_min_measured: lowest measured response of the dose series
[8] = In vitro MDR1-MDCKII permeability, no inhibitor
[9] = In vitro mouse liver microsomal stability
[10] = In vitro MDR1-MDCKII permeability, mean
[11] = protocol iPSC pneumocytes cytotoxicity
[12] = In vitro mouse liver microsomal stability; no cofactor

Structure (SMILES)	CC50 at 24 h (in vitro [1]) [µM]	perc_max_measured [3] [%]	perc_min_measured [3] [%]	EC50 [3] [µM]	EC90 [3] [µM]	logd (LogD)	solubility_mean [5] [µM]	EC50 (SARS-CoV-2) [µM]	EC90 (SARS-CoV-2) [µM]	perc_max_measured (SARS-CoV-2) [%]	perc_min_measured (SARS-CoV-2) [%]	clint [6] [µL/min/mg]	perc_remaining [6] [%]	t_half [6] [min]	perc_remaining_no_cofactor [6] [%]	clint [7, 9] [µL/min/mg]	perc_remaining [7, 9] [%]	t_half [7, 9] [min]	CC50 (HeLa-ACE2 cells) [µM]	cc10 (HeLa-ACE2 cells) [µM]	other results
CC(C)[C@@H](Nc1ncnc2[nH]c(-c3cnn(C)c3)cc12)c1ccc2c(c1)S(=O)(=O)CCC2 (single isomer, unassigned) [ASAP-0012329]	> 20	119.22	72.714	> 20	> 20	3.2	111 (≈ 50 µg/mL)	7.59	> 50	103.795	0.206	405.0	0.0	4.1	105.0	140.0	10.0	11.9	> 20	> 20.0	papp_b_to_a_mean ([2]; In vitro MDR1-MDCKII permeability, B to A, no inhibitor): 3.9 ×10⁻⁶ cm/s and 5.0 ×10⁻⁶ cm/s; efflux_ratio [2, 8]: 40.3 and 73.5; perc_recovery_a_to_b_mean [2, 8]: 72.3% and 98.8% and 68.0%; perc_recovery_b_to_a_mean ([2]; In vitro MDR1-MDCKII permeability, recovery B to A, no inhibitor): 79.2% and 106.0%; perc_recovery_a_to_b_inhibitor_mean ([2]; with inhibitor Cyclosporin A): 77.4%; perc_recovery_a_to_b_inhibitor_mean ([2]; with inhibitor Verapamil): 104.0%; perc_recovery_b_to_a_inhibitor_mean ([2]; recovery B to A, with inhibitor Cyclosporin A): 63.1%; perc_recovery_b_to_a_inhibitor_mean ([2]; recovery B to A, with inhibitor Verapamil): 96.9%; CC50 (in vitro [4]; ASAP-0008327-001=ASAP-0012329-001): > 50 µM; CC50 (iPSC pneumocytes): > 50 µM; cc10 (iPSC pneumocytes): 30.402 µM; perc_max_measured (iPSC pneumocytes): 108.573%; perc_min_measured (iPSC pneumocytes): 85.97%; perc_remaining_no_cofactor ([7]; In vitro mouse liver microsomal stability, no cofactor): 102.0%; perc_max_measured (HeLa-ACE2 cells): 91.281%; perc_min_measured (HeLa-ACE2 cells): 71.036%
CC(C)[C@@H](Nc1ncnc2[nH]c(-c3cnn(CC(N)=O)c3)cc12)c1ccc2c(c1)OCCO2 [ASAP-0008288]	> 50	122.799	73.654	> 50	> 50	0.9	345 (≈ 154 µg/mL)	37.1	> 50	96.462	23.083	99.0	20.0	16.9	103.0	41.0	54.0	41.1	> 50	> 50.0	papp_a_to_b_mean [2, 10]: 0.9 ×10⁻⁶ cm/s; perc_recovery_a_to_b_mean [2, 10]: 89.0%; CC50 (in vitro [4]; ASAP-0008327-001=ASAP-0008288-001): > 50 µM; CC50 (iPSC pneumocytes; [11]): > 50 µM; cc10 (iPSC pneumocytes; [11]): > 50.0 µM; perc_max_measured (iPSC pneumocytes; [11]): 102.79%; perc_min_measured (iPSC pneumocytes; [11]): 85.436%; perc_remaining_no_cofactor [7, 12]: 87.0%; perc_max_measured (HeLa-ACE2 cells): 128.866%; perc_min_measured (HeLa-ACE2 cells): 114.308%
CNC(=O)c1cc2c(N[C@@H](c3ccc4c(c3)OCCO4)C(C)C)ncnc2[nH]1 [ASAP-0008348]	> 50	114.293	64.264	> 50	> 50	2.76	380 (≈ 145 µg/mL)	> 50	> 50	153.61	91.144	79.0	23.0	21.1	92.0	55.0	43.0	30.5	> 50	> 50.0	papp_a_to_b_mean [2, 10]: 1.96 ×10⁻⁶ cm/s; perc_recovery_a_to_b_mean [2, 10]: 86.8%; CC50 (in vitro [4]; ASAP-0008327-001=ASAP-0008348-001): > 50 µM; CC50 (iPSC pneumocytes; [11]): > 50 µM; cc10 (iPSC pneumocytes; [11]): > 50.0 µM; perc_max_measured (iPSC pneumocytes; [11]): 98.804%; perc_min_measured (iPSC pneumocytes; [11]): 52.012%; perc_remaining_no_cofactor [7, 12]: 112.0%; perc_max_measured (HeLa-ACE2 cells): 108.404%; perc_min_measured (HeLa-ACE2 cells): 99.225%
